Columns and labels:
cocklebur = test: Test B pre/postemergence cocklebur; assay type: in vivo, Xanthium strumarium; details: for Cocklebur plant response rating: scale of 0 to 10 where 0 is no effect and 10 is complete control
In short: (§1)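 Herbicidal effect was estimated by eye on a ten-point control scale after plants spent twelve to sixteen days in a greenhouse following soil or foliar treatment. Foliar sprays targeted plants at one to four leaves; all doses were formulated in a non-phytotoxic solvent with surfactant.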

wheat = test: Test B pre/postemergence wheat; assay type: in vivo, Triticum aestivum; details: for Wheat plant response rating: scale of 0 to 10 where 0 is no effect and 10 is complete control
In short: as §1

corn = test: Test B pre/postemergence corn; assay type: in vivo, Zea mays; details: for Corn plant response rating: scale of 0 to 10 where 0 is no effect and 10 is complete control
In short: as §1

smallflower flatsedge = test: Test B flood test smallflower flatsedge; assay type: in vivo, Cyperus difformis
In short: (§2)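 Each value is a visual injury score relative to controls, with 10 meaning complete control and 0 no effect. Evaluation took place twelve to sixteen days after the 2-leaf-stage plants were treated and kept in the greenhouse.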

sugar beet = test: Test B pre/postemergence sugar beet; assay type: in vivo, Beta vulgaris; details: for Sugarbeets plant response rating: scale of 0 to 10 where 0 is no effect and 10 is complete control
In short: as §1

morningglory = test: Test B pre/postemergence morningglory; assay type: in vivo, Ipomoea hederacea; details: for Morningglory plant response rating: scale of 0 to 10 where 0 is no effect and 10 is complete control
In short: as §1

duck salad = test: Test B flood test duck salad; assay type: in vivo, Heteranthera limosa
In short: as §2

bedstraw = test: Test B pre/postemergence bedstraw; assay type: in vivo, Galium aparine
In short: as §1

wild oat = test: Test B pre/postemergence wild oat; assay type: in vivo, Avena fatua; details: for Wild oats plant response rating: scale of 0 to 10 where 0 is no effect and 10 is complete control
In short: as §1

surinam grass = test: Test B pre/postemergence surinam grass; assay type: in vivo, Brachiaria decumbens
In short: as §1

purple nutsedge = test: Test B pre/postemergence purple nutsedge; assay type: in vivo, Cyperus rotundus; details: for Nutsedge plant response rating: scale of 0 to 10 where 0 is no effect and 10 is complete control
In short: as §1

giant foxtail = test: Test B pre/postemergence giant foxtail; assay type: in vivo, Setaria faberii; details: for Giant foxtail plant response rating: scale of 0 to 10 where 0 is no effect and 10 is complete control
In short: as §1

crabgrass = test: Test B pre/postemergence crabgrass; assay type: in vivo, Digitaria sanguinalis; details: for Crabgrass plant response rating: scale of 0 to 10 where 0 is no effect and 10 is complete control
In short: as §1

pigweed = test: Test B pre/postemergence pigweed; assay type: in vivo, Amaranthus retroflexus; details: for Redroot pigweed plant response rating: scale of 0 to 10 where 0 is no effect and 10 is complete control
In short: as §1

rice = test: Test B flood test rice; assay type: in vivo, Oryza sativa
In short: as §2

rape = test: Test B pre/postemergence rape; assay type: in vivo, Brassica napus; details: for Rape plant response rating: scale of 0 to 10 where 0 is no effect and 10 is complete control
In short: as §1

velvetleaf = test: Test B pre/postemergence velvetleaf; assay type: in vivo, Abutilon theophrasti; details: for Velvetleaf plant response rating: scale of 0 to 10 where 0 is no effect and 10 is complete control
In short: as §1

blackgrass = test: Test B pre/postemergence blackgrass; assay type: in vivo, Alopecurus myosuroides
In short: as §1

soybean = test: Test B pre/postemergence soybean; assay type: in vivo, Glycine max; details: for Soybean plant response rating: scale of 0 to 10 where 0 is no effect and 10 is complete control
In short: as §1

bamyardgrass = test: Test B flood test barnyardgrass; assay type: in vivo, Echinochloa crus-galli
In short: as §2

[1] = Postemergence, Rate 125 g/ha, scale 0 to 10, 0 is no effect, 10 is complete control
[2] = Preemergence, Rate 62 g/ha, scale 0 to 10 (0 no effect, 10 complete control)
[3] = Rate 500 g/ha, Postemergence, scale 0 to 10, 0 no effect, 10 complete control
[4] = Postemergence (flood test), Rate 125 g/ha, scale 0 to 10, 0 is no effect, 10 is complete control
[5] = Rate 62 g/ha, Postemergence (flood test species), scale of 0 to 10 where 0 is no effect and 10 is complete control
[6] = Rate 500 g/ha, listed under Postemergence (flood test species), scale 0 to 10, 0 no effect, 10 complete control
[7] = Preemergence, Rate 250 g/ha, scale of 0 to 10 where 0 is no effect and 10 is complete control
[8] = Preemergence, Rate 500 g/ha, scale of 0 to 10 where 0 is no effect and 10 is complete control
[9] = Rate 62 g/ha, Postemergence, scale of 0 to 10 where 0 is no effect and 10 is complete control
[10] = Rate 250 g/ha, Postemergence, scale of 0 to 10 where 0 is no effect and 10 is complete control

What does the source list for `Cc1cccc(C(C)(C)C)c1-n1c(=O)on(C(=O)N(c2ccc(F)cc2)C(C)C)c1=O` [Compound 359]?
Plant response rating, Cocklebur (cocklebur; [1]): 0; Plant response rating, Cocklebur (cocklebur; [2]): 0; Cocklebur plant response rating (0 to 10 scale) (cocklebur; Preemergence, Rate 125 g/ha): 0; Cocklebur plant response rating (cocklebur; Preemergence, Rate 500 g/ha): 0; Cocklebur plant response rating (cocklebur; Rate 62 g/ha, Postemergence): 0; Plant response rating, Cocklebur (cocklebur; [3]): 1; Plant response rating, Wheat (wheat; [1]): 0; Plant response rating, Wheat (wheat; [2]): 0; Wheat plant response rating (0 to 10 scale) (wheat; Preemergence, Rate 125 g/ha): 0; Wheat plant response rating (wheat; Preemergence, Rate 250 g/ha): 0; Wheat plant response rating (wheat; Preemergence, Rate 500 g/ha): 0; Wheat plant response rating (wheat; Rate 62 g/ha, Postemergence): 0; Plant response rating, Wheat (wheat; [3]): 2; Plant response rating, Corn (corn; [1]): 0; Plant response rating, Corn (corn; [2]): 0; Corn plant response rating (0 to 10 scale) (corn; Preemergence, Rate 125 g/ha): 0; Corn plant response rating (corn; Preemergence, Rate 250 g/ha): 0; Corn plant response rating (corn; Preemergence, Rate 500 g/ha): 0; Corn plant response rating (corn; Rate 62 g/ha, Postemergence): 0; Plant response rating, Corn (corn; [3]): 0; Plant response rating, S. Flatsedge (smallflower flatsedge; [4]): 0; S. Flatsedge plant response rating (smallflower flatsedge; [5]): 0; Plant response rating, S. Flatsedge (smallflower flatsedge; [6]): 0; Plant response rating, Sugarbeets (sugar beet; [1]): 0; Plant response rating, Sugarbeets (sugar beet; [2]): 0; Sugarbeets plant response rating (0 to 10 scale) (sugar beet; Preemergence, Rate 125 g/ha): 0; Sugarbeets plant response rating (sugar beet; Preemergence, Rate 250 g/ha): 0; Sugarbeets plant response rating (sugar beet; Preemergence, Rate 500 g/ha): 0; Sugarbeets plant response rating (sugar beet; Rate 62 g/ha, Postemergence): 0; Plant response rating, Sugarbeets (sugar beet; [3]): 0; Plant response rating, Morningglory (morningglory; [1]): 0; Plant response rating, Morningglory (morningglory; [2]): 0; Morningglory plant response rating (0 to 10 scale) (morningglory; Preemergence, Rate 125 g/ha): 0; Morningglory plant response rating (morningglory; Preemergence, Rate 250 g/ha): 0; Morningglory plant response rating (morningglory; Preemergence, Rate 500 g/ha): 0; Morningglory plant response rating (morningglory; Rate 62 g/ha, Postemergence): 0; Plant response rating, Morningglory (morningglory; [3]): 0; Plant response rating, Ducksalad (duck salad; [4]): 0; Ducksalad plant response rating (duck salad; [5]): 0; Plant response rating, Ducksalad (duck salad; [6]): 0; Plant response rating, Bedstraw (bedstraw; [1]): 0; Plant response rating, Bedstraw (bedstraw; [2]): 0; Bedstraw plant response rating (0 to 10 scale) (bedstraw; Preemergence, Rate 125 g/ha): 0; Bedstraw plant response rating (bedstraw; [7]): 0; Bedstraw plant response rating (bedstraw; [8]): 0; Bedstraw plant response rating (bedstraw; [9]): 0; Plant response rating, Bedstraw (bedstraw; [10]): 0; Plant response rating, Bedstraw (bedstraw; [3]): 0; Plant response rating, Wild oats (wild oat; [1]): 0; Plant response rating, Wild oats (wild oat; [2]): 0; Wild oats plant response rating (0 to 10 scale) (wild oat; Preemergence, Rate 125 g/ha): 0; Wild oats plant response rating (wild oat; Preemergence, Rate 250 g/ha): 0; Wild oats plant response rating (wild oat; Preemergence, Rate 500 g/ha): 0; Wild oats plant response rating (wild oat; Rate 62 g/ha, Postemergence): 0; Plant response rating, Wild oats (wild oat; [3]): 0; Plant response rating, B. signalgrass (surinam grass; [1]): 0; Plant response rating, B. signalgrass (surinam grass; [2]): 0; B. signalgrass plant response rating (0 to 10 scale, 0 is no effect, 10 is complete control) (surinam grass; Preemergence, Rate 125 g/ha): 0; B. signalgrass plant response rating (surinam grass; [7]): 0; B. signalgrass plant response rating (surinam grass; [8]): 0; B. signalgrass plant response rating (surinam grass; [9]): 0; Plant response rating, B. signalgrass (surinam grass; [10]): 0; Plant response rating, B. signalgrass (surinam grass; [3]): 0; Plant response rating, Nutsedge (purple nutsedge; [1]): 0; Plant response rating, Nutsedge (purple nutsedge; [2]): 0; Nutsedge plant response rating (0 to 10 scale) (purple nutsedge; Preemergence, Rate 125 g/ha): 0; Nutsedge plant response rating (purple nutsedge; Preemergence, Rate 250 g/ha): 0; Nutsedge plant response rating (purple nutsedge; Preemergence, Rate 500 g/ha): 0; Nutsedge plant response rating (purple nutsedge; Rate 62 g/ha, Postemergence): 0; Plant response rating, Nutsedge (purple nutsedge; [3]): 0; Plant response rating, Giant foxtail (giant foxtail; [1]): 0; Plant response rating, Giant foxtail (giant foxtail; [2]): 0; Giant foxtail plant response rating (0 to 10 scale) (giant foxtail; Preemergence, Rate 125 g/ha): 0; Giant foxtail plant response rating (giant foxtail; Preemergence, Rate 250 g/ha): 0; Giant foxtail plant response rating (giant foxtail; Preemergence, Rate 500 g/ha): 0; Giant foxtail plant response rating (giant foxtail; Rate 62 g/ha, Postemergence): 0; Plant response rating, Giant foxtail (giant foxtail; [3]): 0; Plant response rating, Crabgrass (crabgrass; [1]): 0; Plant response rating, Crabgrass (crabgrass; [2]): 0; Crabgrass plant response rating (0 to 10 scale) (crabgrass; Preemergence, Rate 125 g/ha): 0; Crabgrass plant response rating (crabgrass; Preemergence, Rate 250 g/ha): 0; Crabgrass plant response rating (crabgrass; Preemergence, Rate 500 g/ha): 0; Crabgrass plant response rating (crabgrass; Rate 62 g/ha, Postemergence): 0; Plant response rating, Crabgrass (crabgrass; [3]): 0; Plant response rating, Redroot pigweed (pigweed; [1]): 0; Plant response rating, Redroot pigweed (pigweed; [2]): 0; Redroot pigweed plant response rating (0 to 10 scale) (pigweed; Preemergence, Rate 125 g/ha): 0; Redroot pigweed plant response rating (pigweed; Preemergence, Rate 250 g/ha): 0; Redroot pigweed plant response rating (pigweed; Preemergence, Rate 500 g/ha): 0; Redroot pigweed plant response rating (pigweed; Rate 62 g/ha, Postemergence): 0; Plant response rating, Redroot pigweed (pigweed; [3]): 0; Plant response rating, Rice (rice; [4]): 0; Rice plant response rating (rice; [5]): 0; Plant response rating, Rice (rice; [6]): 0; Plant response rating, Rape (rape; [1]): 0; Plant response rating, Rape (rape; [2]): 0; Rape plant response rating (0 to 10 scale) (rape; Preemergence, Rate 125 g/ha): 0; Rape plant response rating (rape; Preemergence, Rate 250 g/ha): 0; Rape plant response rating (rape; Preemergence, Rate 500 g/ha): 0; Rape plant response rating (rape; Rate 62 g/ha, Postemergence): 0; Plant response rating, Rape (rape; [3]): 0; Plant response rating, Velvetleaf (velvetleaf; [1]): 0; Plant response rating, Velvetleaf (velvetleaf; [2]): 0; Velvetleaf plant response rating (0 to 10 scale) (velvetleaf; Preemergence, Rate 125 g/ha): 0; Velvetleaf plant response rating (velvetleaf; Preemergence, Rate 250 g/ha): 0; Velvetleaf plant response rating (velvetleaf; Preemergence, Rate 500 g/ha): 0; Velvetleaf plant response rating (velvetleaf; Rate 62 g/ha, Postemergence): 0; Plant response rating, Velvetleaf (velvetleaf; [3]): 2; Plant response rating, Blackgrass (blackgrass; [1]): 0; Plant response rating, Blackgrass (blackgrass; [2]): 0; Blackgrass plant response rating (0 to 10 scale) (blackgrass; Preemergence, Rate 125 g/ha): 0; Blackgrass plant response rating (blackgrass; [7]): 0; Blackgrass plant response rating (blackgrass; [8]): 0; Blackgrass plant response rating (blackgrass; [9]): 0; Plant response rating, Blackgrass (blackgrass; [10]): 0; Plant response rating, Blackgrass (blackgrass; [3]): 2; Plant response rating, Soybean (soybean; [1]): 2; Plant response rating, Soybean (soybean; [2]): 0; Soybean plant response rating (0 to 10 scale) (soybean; Preemergence, Rate 125 g/ha): 0; Soybean plant response rating (soybean; Preemergence, Rate 250 g/ha): 0; Soybean plant response rating (soybean; Preemergence, Rate 500 g/ha): 0; Soybean plant response rating (soybean; Rate 62 g/ha, Postemergence): 0; Plant response rating, Soybean (soybean; [3]): 3; Plant response rating, Barnyardgrass (bamyardgrass; [4]): 0; Barnyardgrass plant response rating (bamyardgrass; [5]): 0; Plant response rating, Barnyardgrass (bamyardgrass; Rate 250 g/ha, Postemergence (flood test species), scale of 0 to 10 where 0 is no effect and 10 is complete control): 0; Plant response rating, Barnyardgrass (bamyardgrass; [6]): 0
